For this experiment, the target named is PDE9 (Homo sapiens (Human), UniProt O76083). Kind of experiment: PDE9-inhibiting activity (SPA enzyme assay). In kind it is biochemical. Particulars: IC50 values; cGMP 1 μM substrate, 30° C.; read-out: PDE9 inhibition. On the procedure: The PDE9-inhibiting activity was measured by the following method. That is, to a buffer solution containing tris(hydroxymethyl)aminomethane-hydrochloric acid (40 mM, pH 8.0), magnesium chloride (5 mM), and 2-mercaptoethanol (4 mM) were added cGMP (1 μM) and ^3H-cGMP (0.33 μCi/ml) to give a substrate buffer solution. A test substance solution and an enzyme solution which had been adjusted to an optimal concentration were added thereto to perform a reaction at 30° C. The enzyme reaction was stopped by the addition of Scintillation Proximity Assay (SPA) Beads (Perkin Elmer, USA) containing 5 mM 3-isobutyl-1-methylxanthine (IBMX). For the enzyme activity, the amount of 5′-GMP, which is a reaction degradation product bound to SPA beads, was measured with a TopCount microplate reader (Hewlett Packard, USA). The inhibitory rate was calculated by taking the radioactivity of the control containing no test substance as (A), taking the radioactivity of the blank containing no enzyme as (B), and taking the radioactivity of the test substance as (C), and using the following equation.

The values below come from patent US8822448B2, “Pyrazoloquinoline compound” (Astellas Pharma Inc., priority 2010, dated 2014).

Counter-ions that a name gives are not always drawn.

Chain of PDE9 (O76083 whole entry): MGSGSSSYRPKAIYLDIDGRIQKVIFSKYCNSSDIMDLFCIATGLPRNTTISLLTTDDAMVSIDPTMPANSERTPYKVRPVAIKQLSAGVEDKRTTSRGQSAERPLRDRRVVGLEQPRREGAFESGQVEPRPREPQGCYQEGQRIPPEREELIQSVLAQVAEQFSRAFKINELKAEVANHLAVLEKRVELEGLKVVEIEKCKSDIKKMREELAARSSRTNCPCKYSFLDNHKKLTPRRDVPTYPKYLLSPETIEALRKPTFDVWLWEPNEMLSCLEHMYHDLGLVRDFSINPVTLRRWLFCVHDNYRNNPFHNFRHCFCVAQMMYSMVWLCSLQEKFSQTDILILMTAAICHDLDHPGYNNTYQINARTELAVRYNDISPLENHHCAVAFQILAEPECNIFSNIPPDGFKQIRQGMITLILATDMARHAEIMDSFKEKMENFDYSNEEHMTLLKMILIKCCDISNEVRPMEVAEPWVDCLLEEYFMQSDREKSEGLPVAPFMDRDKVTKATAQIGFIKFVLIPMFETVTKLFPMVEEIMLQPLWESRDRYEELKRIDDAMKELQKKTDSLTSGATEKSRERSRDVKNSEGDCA

For `Cc1cc2[nH]c(=O)c3cnn(C4CCOCC4)c3c2cc1C(=O)N1CCN(Cc2cccnc2)CC1` [Example 2, 7-methyl-8-{[4-(pyridin-3-ylmethyl)piperazin-1-yl]carbonyl}-1-(tetrahydro-2H-pyran-4-yl)-1,5-dihydro-4H-pyrazolo[4,3-c]quinolin-4-one dihydrochloride], the IC50 was 12 nM.

As to `Cc1cc2[nH]c(=O)c3cnn(C4CCOCC4)c3c2cc1C(=O)N1CCN(c2cnccn2)CC1` [Example 50], the IC50 is 7.5 nM.

Turning to `CCOCCCN1CCN(C(=O)c2cc3c(cc2C)[nH]c(=O)c2cnn(C4CCC4)c23)CC1` [Example 70], the IC50 stood at 17 nM.

`Cc1cc2[nH]c(=O)c3cnn(C4CCOCC4)c3c2cc1C(=O)N1CC2CN(Cc3ccccc3)CC2C1` (stereo not shown) [Example 74]: the IC50 came out at 12 nM.

In the case of `Cc1cc2[nH]c(=O)c3cnn(C4CCOCC4)c3c2cc1C(=O)N1CCC2(CCCO2)CC1` [Example 87], the IC50 amounted to 12 nM.

For `CCOCC1CCN(C(=O)c2cc3c(cc2C)[nH]c(=O)c2cnn(C4CCOCC4)c23)C1` (stereo not shown) [Example 92], the IC50 is 6.1 nM.

Consider `Cc1cc2[nH]c(=O)c3cnn(C4CCOCC4)c3c2cc1C(=O)N1CCC(OCC(F)F)CC1` [Example 94], for which the IC50 came out at 1.7 nM.

Consider `CCOCCCCN1CCN(C(=O)c2cc3c(cc2C)[nH]c(=O)c2cnn(C4CCOCC4)c23)CC1` [Example 107], for which the IC50 was found to be 15 nM.

For `COc1cc2[nH]c(=O)c3cnn(C4CCCC4)c3c2cc1C(=O)NCC(C)(C)N1CCOCC1` [Example 119], the IC50 came to 8.9 nM.

For the compound `COCCCCN1CCN(C(=O)c2cc3c(cc2OC)[nH]c(=O)c2cnn(C4CCCC4)c23)CC1` [Example 123], the IC50 is 18 nM.

As to `COCCCCN(C)[C@H]1CCN(C(=O)c2cc3c(cc2C)[nH]c(=O)c2cnn(C4CCOCC4)c23)C1` [Example 127], the IC50 worked out at 5 nM.

Consider `CCc1cc2[nH]c(=O)c3cnn(C4CCOCC4)c3c2cc1C(=O)N1CCN(CCCCOC)[C@H](C)C1` [Example 129], for which the IC50 came out at 1.1 nM.

On to `Cc1cc2[nH]c(=O)c3cnn(C4CCOCC4)c3c2cc1C(=O)N1CCN(CCCC(F)(F)F)CC1` [Example 139], for which the IC50 was 3 nM.

Consider `COCCCCN1C[C@@H]2C[C@H]1CN2C(=O)c1cc2c(cc1C)[nH]c(=O)c1cnn(C3CCOCC3)c12` [Example 145], for which the IC50 was 8.3 nM.

As to `COCCCCN1CCN(C(=O)c2cc3c(cc2C)[nH]c(=O)c2cnn(C4CCC4)c23)C[C@@H]1C` [Example 146], the IC50 was found to be 5.2 nM.

Take `CCOCC1CCN(C(=O)c2cc3c(cc2C)[nH]c(=O)c2cnn([C@H]4CCOC4)c23)CC1` [Example 148]: the IC50 is 5.1 nM.

In the case of `Cc1cc2[nH]c(=O)c3cnn(C4CCOCC4)c3c2cc1C(=O)N1CC(N(C)CCC(F)(F)F)C1` [Example 150], the IC50 turned out to be 8 nM.

As for `CCOCC1CCN(C(=O)c2cc3c(cc2C(F)(F)F)[nH]c(=O)c2cnn(C4CCOCC4)c23)CC1` [Example 152], the IC50 turned out to be 53 nM.

As to `COCCCCN1CCN(C(=O)c2cc3c(cc2C)[nH]c(=O)c2cnn(CC4CCOCC4)c23)CC1` [Example 154], the IC50 was 32 nM.

Take `Cc1cc2[nH]c(=O)c3cnn(C4CCC4)c3c2cc1C(=O)N1CCN(CCC(F)(F)F)CC1` [Example 161]: the IC50 was determined as 31 nM.

Regarding `CCc1cc2[nH]c(=O)c3cnn(C4CCC4)c3c2cc1C(=O)N1CCN(CCC(F)(F)F)CC1` [Example 162], the IC50 stood at 7 nM.

For `COCC(F)(F)CN1CCN(C(=O)c2cc3c(cc2C)[nH]c(=O)c2cnn([C@H]4CCOC4)c23)CC1` [Example 166], the IC50 is 10 nM.

On to `CCOCCC1CCN(C(=O)c2cc3c(cc2C)[nH]c(=O)c2cnn(C4CCOCC4)c23)CC1` [Example 168], for which the IC50 was found to be 4.3 nM.

Take `Cc1cc2[nH]c(=O)c3cnn(C4CCOCC4)c3c2cc1C(=O)N1CCC(OC2CCC2)CC1` [Example 169]: the IC50 was 2.5 nM.

In the case of `Cc1cc2[nH]c(=O)c3cnn(C4CCOCC4)c3c2cc1C(=O)N1CCN(CCCOC(F)(F)F)CC1` [Example 173], the IC50 was determined as 6.3 nM.

Regarding `Cc1cc2[nH]c(=O)c3cnn([C@H]4CCOC4)c3c2cc1C(=O)N1CCC(OC[C@H](C)F)CC1` [Example 178], the IC50 was 4.4 nM.

Regarding `COCCCN1CCN(C(=O)c2cc3c(cc2C)[nH]c(=O)c2cnn(C4CCC4)c23)C[C@@H]1C` [Example 179], the IC50 was 6.8 nM.

Consider `Cc1cc2[nH]c(=O)c3cnn([C@H]4CCN(C)C4)c3c2cc1C(=O)N1CCN(c2ccc(F)c(C)n2)[C@@H](C)C1` [Example 181], for which the IC50 came out at 4.4 nM.

In the case of `Cc1cc2[nH]c(=O)c3cnn([C@H]4CCN(C)C4)c3c2cc1C(=O)N1CCN(c2ccc(F)c(C)n2)[C@H](C)C1` [Example 182], the IC50 was found to be 5.5 nM.

For the compound `COCCCCN1C[C@H](C)N(C(=O)c2cc3c(cc2C)[nH]c(=O)c2cnn(C4CCOCC4)c23)C[C@H]1C` [Example 183], the IC50 came to 3.5 nM.

Take `Cc1cc2[nH]c(=O)c3cnn(C4CCOCC4)c3c2cc1C(=O)N1C[C@@H](C)N(CCC(F)(F)F)C[C@@H]1C` [Example 184]: the IC50 came out at 4.7 nM.

On to `Cc1cc2[nH]c(=O)c3cnn([C@H]4CCOC4)c3c2cc1C(=O)N1CCN(CCC(F)(F)F)CC1` [Example 185], for which the IC50 came out at 19 nM.

Take `COCCCCN1CCN(C(=O)c2cc3c(cc2C)[nH]c(=O)c2cnn(C4CCCC4)c23)C[C@@H]1C` [Example 186]: the IC50 stood at 3.8 nM.

As for `COCCCCN1C[C@H](C)N(C(=O)c2cc3c(cc2C)[nH]c(=O)c2cnn(CC4CC4)c23)C[C@H]1C` [Example 187], the IC50 worked out at 8.4 nM.

Consider `Cc1cc2[nH]c(=O)c3cnn(CC4CC4)c3c2cc1C(=O)N1C[C@@H](C)N(CCC(F)(F)F)C[C@@H]1C` [Example 188], for which the IC50 was 14 nM.

As to `COCCCCN1C[C@H](C)N(C(=O)c2cc3c(cc2C)[nH]c(=O)c2cnn(CC4CCC4)c23)C[C@H]1C` [Example 189], the IC50 was 6.9 nM.

With `Cc1cc2[nH]c(=O)c3cnn(CC4CCC4)c3c2cc1C(=O)N1C[C@@H](C)N(CCC(F)(F)F)C[C@@H]1C` [Example 190], the IC50 stood at 7.5 nM.

As for `Cc1cc2[nH]c(=O)c3cnn([C@H]4CCOC4)c3c2cc1C(=O)N1CCC(OCC(C)(F)F)CC1` [Example 191], the IC50 worked out at 9.5 nM.

`Cc1cc2[nH]c(=O)c3cnn(C4CCOCC4)c3c2cc1C(=O)N1CCC(C(F)(F)F)CC1` [Example 192]: the IC50 was found to be 11 nM.

Take `COCCCCN1CCN(C(=O)c2cc3c(cc2C)[nH]c(=O)c2cnn(C4CCC(F)(F)CC4)c23)C[C@@H]1C` [Example 193]: the IC50 stood at 5.7 nM.

For `COCCCCN1CCN(C(=O)c2cc3c(cc2C)[nH]c(=O)c2cnn(CC4CC4)c23)C[C@@H]1C` [Example 195], the IC50 was 4.4 nM.

On to `Cc1cc2[nH]c(=O)c3cnn([C@H]4CCOC4)c3c2cc1C(=O)N1CCC(OCC2CC2)CC1` [Example 198], for which the IC50 came out at 3.2 nM.

Take `CCCOC1CCN(C(=O)c2cc3c(cc2C)[nH]c(=O)c2cnn([C@H]4CCOC4)c23)CC1` [Example 199]: the IC50 amounted to 4.7 nM.

On to `Cc1cc2[nH]c(=O)c3cnn([C@H]4CCOC4)c3c2cc1C(=O)N1CCN(CCCC(F)(F)F)CC1` [Example 200], for which the IC50 worked out at 9 nM.

Take `CCOCCC1CCN(C(=O)c2cc3c(cc2C)[nH]c(=O)c2cnn([C@H]4CCOC4)c23)CC1` [Example 201]: the IC50 worked out at 6.6 nM.

As for `Cc1cc2[nH]c(=O)c3cnn([C@H]4CCOC4)c3c2cc1C(=O)N1CCC(OC2CCC2)CC1` [Example 202], the IC50 amounted to 3.7 nM.
